The test system of assay [1] is Mobile stages of sea lice (pre-adults, adults of Lepeophtheirus salmonis). Nature of the assay: Adult sea lice contact assay. As to conditions: pre-adults/adults, assessed after ~1 and 24 h, read-out: EC50 (sea lice inhibition, dead+damaged). As to the method:
Mobile stages of sea lice (i.e., pre-adults, adults of Lepeophtheirus salmonis) were exposed to seawater spiked with declining concentrations of a test compound (dissolved in a PEG sea-water mixture). Sea lice inhibition (% of dead+damaged sea lice) was assessed after approximately 1 and 24 hours of continuous exposure in comparison to a negative (solvent) control group.

The test system of assay [2] is Lepeophtheirus salmonis. The assay can be described thus: Salmon - in vivo efficacy against sea lice using gavage administration. The note with it: 5 mg/kg once by gavage, day -3 infestation, counted around day 28. The gist of the method: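 Salmon given a single oral gavage of 5 mg/kg in 5% DMSO/95% fish oil on day 0, with vehicle controls. L. salmonis copepodid infestations around days −28, −3 and 17; lice counted by stage around day 28, efficacy as % reduction versus control by Abbott's formula.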

Assay [3] relates to Rhipicephalus microplus tick larvae. The assay can be described thus: Tick larvae contact assay. The note with it: ~3 min immersion, assessed ~24 h after, read-out: Tick inhibition (% of damage+dead ticks). The protocol: Tick larvae (Rhipicephalus microplus) were immersed for approximately 3 minutes in declining concentrations of a test compound (dissolved in a DMSO-emulsifier-deionized water mixture). Tick inhibition (% of damage+dead ticks per test concentration) was assessed approximately 24 hours after contact exposure. The vitality of used parasites was confirmed in negative control groups (i.e. an untreated control and a solvent control).

Assay [4] has as its system Adult fleas (Ctenocephalides felis). The assay can be described thus: Flea feeding assay. The note with it: 1 ppm in blood, ~48 h membrane feeding, read-out: flea inhibition (% of dead+damaged fleas). The protocol:
Adult fleas (Ctenocephalides felis) of defined age were fed on artificial membranes with blood spiked with declining concentrations of a test compound (dissolved in a DMSO-emulsifier-blood mixture). After approximately 48 hours of continuous feeding, flea inhibition (i.e., % of dead+damaged fleas per test concentration) was assessed. The vitality of used parasites was confirmed in negative control groups (i.e., an untreated control and a solvent control).

Assay [5] deals with Lepeophtheirus salmonis. The assay can be described thus: Salmon - in vivo efficacy against sea lice using gavage administration. As to conditions: po, 168 h, read-out: therapeutic efficacy against (pre-)adult sea lice (% reduction vs control), salmon, 5 mg/kg once by gavage, day -28 infestation, counted day 7.
Assay [6] has as its system juvenile soft ticks (Ornithodoros moubata). The assay can be described thus: Guinea pig - efficacy against argaside tick. The assay is classed as in vivo. The gist of the method:
(§1)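 Guinea pigs given 5 mg/kg test compound orally (gavage) or s.c. in 10% DMF/emulsifier plus 90% water for injection, with local co-infestations of Ornithodoros moubata juveniles and Cimex lectularius at several post-treatment times. Engorged parasites scored dead/damaged about 24 h after collection; % inhibition versus pretreatment baseline by modified Schneider-Orelli formula.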

The test system of assay [7] is bed bugs (Cimex lectularius). Nature of the assay: Guinea pig - efficacy against bed bug. The assay is classed as in vivo. Put shortly: as §1
The subject of assay [8] is Copepodids (juvenile sea lice stage of Lepeophtheirus salmonis). The assay can be described thus: Juvenile sea lice contact assay. The note with it: Lepeophtheirus salmonis, ~24 h, read-out: Sea lice inhibition (% of dead+damaged copepodids); for inhibition at 0.1 µM: 100 nM in seawater. The protocol:
Copepodids (juvenile sea lice stage of Lepeophtheirus salmonis) were exposed to seawater spiked with declining concentrations of a test compound (dissolved in a DMSO sea-water mixture). Sea lice inhibition (% of dead+damaged copepodids) was assessed after approximately 24 hours of continuous exposure. The vitality of used parasites was confirmed in a negative (solvent) control group.

The subject of assay [9] is Rhipicephalus microplus. The assay can be described thus: Cattle - efficacy against one-host tick. The assay is classed as in vivo. The note with it: 1 mg/kg pour on in Imwitor 988+Miglyol 840. The protocol: Cattle were infested (whole body) with up to 3000 Rhipicephalus microplus larvae two or three times per week before and after the treatment day (Day 0). Cattle of treatment groups were treated subcutaneously or topically (spray or pour-on) at a dose of 1 mg/kg bodyweight of a test compound. As subcutaneous formulation either 2-pyrrolidon 50%/Tween 80 50% or NMP 60%/PEG300 40% was used. As topical formulation either a spray solution (DMF/Emulsifier 2%/tap water 98%) (Compound 4) or a DMA 92%/DEET 8% pour-on solution (all other compounds) or a pour-on solution containing Imwitor 988 (20%)+Miglyol 840 (QS) (Compound 453 and Compound 466) or a pour-on solution containing Miglyol 840 (QS) (Compound 453) was used. Cattle of the negative control group received only the formulation excipients of the respective administration route.
Fully engorged female ticks dropping from cattle were collected daily after treatment and counted in treatment and control groups. Efficacy was expressed using the standard ADEQ analysis method (ADEQ calculation in accordance with WAAVP guidelines for evaluating the efficacy of acaricides against ticks on ruminants; Veterinary parasitology 136 (2006) 29-43). Compounds with efficacy ≥80 percent were found active/effective. Onset of efficacy means the first Day with efficacy ≥80 percent. Duration of efficacy means the last Day with efficacy ≥80 percent.

Assay [10] has as its system Rhipicephalus sanguineus or Haemaphysalis elliptica ticks. Nature of the assay: Dog - efficacy against ticks. The format is in vivo. The note with it: for therapeutic efficacy against ticks (active = efficacy ≥80 percent): D2. As to the method:
(§2) Beagle dogs were infested (whole body) with 80 Ctenocephalides felis fleas and 50 Rhipicephalus sanguineus or Haemaphysalis elliptica ticks (sex ratio 1:1) two days before the treatment day (Day 0), and repeatedly thereafter. Dogs of treatment groups were treated with 10 mg/kg bodyweight of a test compound orally (compound weighed in gelatin capsule), topically (spot-on, DMA 92%/DEET 8%) or subcutaneously (PEG 200 90%/water for injection 10%). Dogs of the negative control group received only an empty gelatin capsule orally and the spot-on formulation excipients topically.
(§3) Compounds with efficacy ≥80 percent were found active.

Assay [11] deals with Ctenocephalides felis fleas. Nature of the assay: Dog - efficacy against fleas. The format is in vivo. The note with it: for therapeutic efficacy against fleas (active = efficacy ≥80 percent): D2. As to the method:
as §2, §3

The subject of assay [12] is Fly larvae I (Lucilia cuprina). Nature of the assay: Fly larvae contact/feeding assay. The note with it: 48 h, read-out: Inhibition of fly larvae development. The protocol: Fly larvae I (Lucilia cuprina) were grown in medium spiked with declining concentrations of a test compound (dissolved in a DMSO-emulsifier-deionized water mixture). Inhibition of fly larvae development (%) was assessed after approximately 48 hours of continuous exposure. The vitality of used parasites was confirmed in negative control groups (i.e., an untreated control and a solvent control).

Setting [13] is: 5 mg/kg subcutaneous, after 7 days.
[14] abbreviates: 5 mg/kg, at least until Day 10, both administration routes (oral, subcutaneous).
Where [15] appears, read: 5 mg/kg subcutaneous, after 10 days.
[16] abbreviates: 5 mg/kg subcutaneous, after 14 days.
Setting [17] is: 5 mg/kg subcutaneous, after 17 days.

Bounds are passed on as bounds.

`O=C(Nc1ncc(F)cc1F)c1cc(NC(=O)[C@H]2[C@H](c3ccc(F)c(Cl)c3)C2(Cl)Cl)ccc1Cl` [Compound 89]: the EC50 – broadly, the concentration at which the effect is half-maximal – in [1] is at most 10 nM. Further, the “therapeutic efficacy against juvenile sea lice (% reduction vs control)” value in assay [2] turned out to be 100%. In addition, in assay [3], the inhibition (usually the drop in the measured response relative to a control, in per cent) at 49 µM turned out to be 80%; the inhibition at 388 µM amounted to 80%; the inhibition at 100 ppm was 80%. Moreover, in assay [4], the inhibition at 1 ppm was determined as 80%. In [5], the inhibition in vivo at 5 mg/kg is 100%. Besides, the “activity against tick nymphs (≥80% inhibition, killed+damaged)” value in assay [6] (5 mg/kg oral, Day 0) is “immediate activity”. In assay [6] (5 mg/kg subcutaneous, Day 0), the “activity against tick nymphs (≥80% inhibition, killed+damaged)” value is given as “immediate activity”. Further, the “activity against bed bugs (≥80% inhibition, killed+damaged)” value in assay [7] (5 mg/kg oral, Day 0) is recorded as “immediate activity”. For the same compound, in [7] (5 mg/kg subcutaneous, Day 0), the “activity against bed bugs (≥80% inhibition, killed+damaged)” value is on record as “immediate activity”. Also, the inhibition at 0.01 µM in [8] (10 nM in seawater) came out at 100%.

For the compound `O=C(Nc1cnc(F)cc1F)c1cc(NC(=O)[C@H]2[C@H](c3cc(Cl)c(Cl)c(Cl)c3)C2(Cl)Cl)ccc1Cl` [Compound 466], the EC50 in [1] was at most 10 nM. Besides, in [2], the “therapeutic efficacy against juvenile sea lice (% reduction vs control)” value is 80%. Besides, in assay [5], the inhibition in vivo at 5 mg/kg is 80%. Further, the “activity against tick nymphs (≥80% inhibition, killed+damaged)” value in assay [6] (5 mg/kg oral, Day 0) is recorded as “immediate activity”; in assay [6] (5 mg/kg oral, after 7 days), “activity”; in assay [6] (5 mg/kg oral, after 10 days) it was “activity”; in assay [6] (5 mg/kg oral, after 14 days), “activity”; in assay [6] (5 mg/kg subcutaneous, Day 0) it was “immediate activity”; in [6] (setting [13]) it was “activity”. Further, the “effective to control ticks” value in assay [6] (setting [14]) was determined as 100%. In addition, the “duration of efficacy (last Day with efficacy ≥80 percent)” value in [9] was 87 days. Moreover, in assay [9], the “onset of efficacy (first Day with efficacy ≥80 percent)” value was determined as 1 days. Besides, the “activity against bed bugs (≥80% inhibition, killed+damaged)” value in [7] (5 mg/kg oral, Day 0) is listed as “immediate activity”; in assay [7] (5 mg/kg oral, after 7 days), “activity”; in assay [7] (5 mg/kg oral, after 10 days), “activity”; in assay [7] (5 mg/kg oral, after 14 days) it was “activity”; in [7] (5 mg/kg oral, after 17 days), “activity”; in [7] (5 mg/kg subcutaneous, Day 0) it was “immediate activity”. For the same compound, the “activity against bed bugs (≥80% inhibition, killed+damaged)” value in assay [7] (setting [13]), in [7] (setting [15]), in assay [7] (setting [16]) and in assay [7] (setting [17]) was “activity” each time. In addition, the “effective to control bed bugs” value in assay [7] (setting [14]) came out at 100%. Moreover, the inhibition at 0.1 µM in [8] worked out at 100%. For the same compound, in [10] (10 mg/kg), the “efficacy against ticks in dogs (conclusion)” value is reported as “therapeutic efficacy”. The “therapeutic efficacy against ticks (active = efficacy ≥80 percent)” value in assay [10] (10 mg/kg oral) and in assay [10] (10 mg/kg topical spot-on) was “active” in each case. For the same compound, the “efficacy against fleas in dogs (conclusion)” value in assay [11] (10 mg/kg) is “therapeutic efficacy”. In addition, the “therapeutic efficacy against fleas (active = efficacy ≥80 percent)” value in assay [11] (10 mg/kg oral) and in [11] (10 mg/kg topical spot-on) was “active” throughout.

`CN(C(=O)c1cc(NC(=O)[C@H]2[C@H](c3cc(Cl)cc(Cl)c3)C2(Cl)Cl)ccc1Cl)c1ccc(F)cc1` [Compound 51]: in assay [3] (25 μM), the inhibition at 25 µM was at least 80%. Moreover, the inhibition at 49 µM in [3] is 80%. Besides, the inhibition at 388 µM in assay [3] was determined as 80%. The inhibition at 100 ppm in assay [3] and in [12] was 80% in each case. The “activity against tick nymphs (≥80% inhibition, killed+damaged)” value in [6] (5 mg/kg oral, Day 0) is “immediate activity”; in assay [6] (5 mg/kg oral, after 7 days), “activity”; in assay [6] (5 mg/kg subcutaneous, Day 0), “immediate activity”; in assay [6] (setting [13]) it was “activity”; in [6] (setting [15]) it was “activity”; in assay [6] (setting [16]) it was “activity”. The “activity against tick nymphs (≥80% inhibition, killed+damaged)” value in assay [6] (setting [17]) is reported as “activity”. Moreover, the “duration of efficacy, subcutaneous compared with oral administration” value in assay [6] (5 mg/kg, ticks and bed bugs) was “longer duration of efficacy”. Moreover, the “activity against bed bugs (≥80% inhibition, killed+damaged)” value in [7] (5 mg/kg oral, Day 0) is given as “immediate activity”; in assay [7] (5 mg/kg oral, after 7 days) it was “activity”; in assay [7] (5 mg/kg subcutaneous, Day 0), “immediate activity”; in assay [7] (setting [13]), “activity”; in assay [7] (setting [15]), “activity”; in [7] (setting [16]), “activity”. The “activity against bed bugs (≥80% inhibition, killed+damaged)” value in assay [7] (setting [17]) is on record as “activity”. Also, in assay [8], the inhibition at 0.1 µM is at least 80%.
